System: MV-4-11 cells
Experiment: Gene expression microarray analysis (Affymetrix PrimeView) and GSEA
Format: cell-based, human
Parameters: RFU PODN (11730768_x_at) / Fold change /veh PODN (11730768_x_at) / RFU LINC00158 (11744669_a_at) / Fold change /veh LINC00158 (11744669_a_at) / RFU DUSP10 (11751237_a_at) / Fold change /veh DUSP10 (11751237_a_at) / RFU ID3 (11757404_x_at) / Fold change /veh ID3 (11757404_x_at) / RFU PLEKHG5 (11737974_s_at) / Fold change /veh PLEKHG5 (11737974_s_at) / RFU LRRC4B (11730491_at) / Fold change /veh LRRC4B (11730491_at) / RFU GIMAP4 (11747438_a_at) / Fold change /veh GIMAP4 (11747438_a_at) / RFU KRT8 (11758183_x_at) / Fold change /veh KRT8 (11758183_x_at) / RFU CNN1 (11734310_a_at) / Fold change /veh CNN1 (11734310_a_at) / RFU VPS37D (11726825_at) / Fold change /veh VPS37D (11726825_at) / RFU C10orf10 (11716522_x_at) / Fold change /veh C10orf10 (11716522_x_at) / RFU KIR2DL2 /// KIR2DL4 /// KIR2DL5A /// KIR2DL5B /// KIR2DS1 /// KIR2DS2 /// KIR2DS3 /// KIR2DS4 /// KIR3DL3 /// KIR3DL3 /// KIR3DS1 (11738374_at) / Fold change /veh KIR2DL2 /// KIR2DL4 /// KIR2DL5A /// KIR2DL5B /// KIR2DS1 /// KIR2DS2 /// KIR2DS3 /// KIR2DS4 /// KIR3DL3 /// KIR3DL3 /// KIR3DS1 (11738374_at) / RFU C1QL1 (11718748_at) / Fold change /veh C1QL1 (11718748_at) / RFU TMPRSS4 (11747572_a_at) / Fold change /veh TMPRSS4 (11747572_a_at) / RFU HAMP (11756126_x_at) / Fold change /veh HAMP (11756126_x_at) / RFU RNFT2 (11725882_a_at) / Fold change /veh RNFT2 (11725882_a_at) / RFU NR4A2 (11747474_a_at) / Fold change /veh NR4A2 (11747474_a_at) / RFU ABCC12 (11746883_a_at) / Fold change /veh ABCC12 (11746883_a_at) / RFU TMEM136 (11760407_x_at) / Fold change /veh TMEM136 (11760407_x_at) / RFU CLDN22 /// WWC2 (11732394_at) / Fold change /veh CLDN22 /// WWC2 (11732394_at) / RFU HLA-DPB1 (11760878_x_at) / Fold change /veh HLA-DPB1 (11760878_x_at) / RFU SPINT1 (11716480_a_at) / Fold change /veh SPINT1 (11716480_a_at) / RFU GAP43 (11754022_s_at) / Fold change /veh GAP43 (11754022_s_at) / RFU A4GNT (11735810_at) / Fold change /veh A4GNT (11735810_at) / RFU PRB3 (11715151_x_at) / Fold change /veh PRB3 (11715151_x_at) / RFU TUBB4B (11761932_at) / Fold change /veh TUBB4B (11761932_at) / RFU CAPN14 (11732068_a_at) / Fold change /veh CAPN14 (11732068_a_at) / RFU TMCC2 (11721928_a_at) / Fold change /veh TMCC2 (11721928_a_at) / RFU IRGQ (11745062_a_at) / Fold change /veh IRGQ (11745062_a_at) / RFU FAM174B (11720279_a_at) / Fold change /veh FAM174B (11720279_a_at) / RFU TMPRSS4 (11748680_a_at) / Fold change /veh TMPRSS4 (11748680_a_at) / RFU FAM212B (11763350_a_at) / Fold change /veh FAM212B (11763350_a_at) / RFU PLEKHG5 (11743358_a_at) / Fold change /veh PLEKHG5 (11743358_a_at) / RFU ZSCAN30 (11745921_a_at) / Fold change /veh ZSCAN30 (11745921_a_at) / RFU CMKLR1 (11741424_a_at) / Fold change /veh CMKLR1 (11741424_a_at) / RFU LOC101060620 /// MAPK8IP1 (11723275_at) / Fold change /veh LOC101060620 /// MAPK8IP1 (11723275_at) / RFU SPTSSB (11747773_x_at) / Fold change /veh SPTSSB (11747773_x_at) / RFU PRSS12 (11739890_at) / Fold change /veh PRSS12 (11739890_at) / RFU BIN1 (11741810_x_at) / Fold change /veh BIN1 (11741810_x_at) / RFU WNT11 (11732464_a_at) / Fold change /veh WNT11 (11732464_a_at) / RFU C10orf10 (11716521_a_at) / Fold change /veh C10orf10 (11716521_a_at) / RFU C5orf56 (11738089_at) / Fold change /veh C5orf56 (11738089_at) / RFU CYB561 (11721691_x_at) / Fold change /veh CYB561 (11721691_x_at) / RFU ANKRD19P (11752326_a_at) / Fold change /veh ANKRD19P (11752326_a_at) / RFU OR2T12 /// OR2T33 /// OR2T8 (11738714_s_at) / Fold change /veh OR2T12 /// OR2T33 /// OR2T8 (11738714_s_at) / RFU VCAN (11748164_a_at) / Fold change /veh VCAN (11748164_a_at) / RFU JSRP1 (11732532_at) / Fold change /veh JSRP1 (11732532_at) / RFU KRTAP10-11 (11738290_x_at) / Fold change /veh KRTAP10-11 (11738290_x_at) / RFU MYO3A (11730013_a_at) / Fold change /veh MYO3A (11730013_a_at) / RFU EBF3 (11725865_a_at) / Fold change /veh EBF3 (11725865_a_at) / RFU CAMK2N1 (11719241_x_at) / Fold change /veh CAMK2N1 (11719241_x_at) / RFU C5orf56 (11738088_a_at) / Fold change /veh C5orf56 (11738088_a_at) / RFU OLFML3 (11715873_a_at) / Fold change /veh OLFML3 (11715873_a_at) / RFU LOC100653217 /// NTM (11731650_a_at) / Fold change /veh LOC100653217 /// NTM (11731650_a_at) / RFU MAPK11 (11762145_a_at) / Fold change /veh MAPK11 (11762145_a_at) / RFU FIZ1 (11724087_x_at) / Fold change /veh FIZ1 (11724087_x_at) / RFU OASL (11726364_x_at) / Fold change /veh OASL (11726364_x_at) / RFU SOX15 (11748057_x_at) / Fold change /veh SOX15 (11748057_x_at) / RFU CD79A (11719716_a_at) / Fold change /veh CD79A (11719716_a_at) / RFU HIST1H1D (11736915_at) / Fold change /veh HIST1H1D (11736915_at) / RFU CASKIN2 (11723855_a_at) / Fold change /veh CASKIN2 (11723855_a_at) / RFU LOC730098 (11760151_x_at) / Fold change /veh LOC730098 (11760151_x_at) / RFU OR4N2 (11742367_at) / Fold change /veh OR4N2 (11742367_at) / RFU PRRT2 (11749266_a_at) / Fold change /veh PRRT2 (11749266_a_at) / RFU SNX32 (11753110_a_at) / Fold change /veh SNX32 (11753110_a_at) / RFU CDHR5 (11726645_a_at) / Fold change /veh CDHR5 (11726645_a_at) / RFU RCAN1 (11760418_a_at) / Fold change /veh RCAN1 (11760418_a_at) / RFU FAM167A (11723789_a_at) / Fold change /veh FAM167A (11723789_a_at) / RFU FAM26E (11764081_at) / Fold change /veh FAM26E (11764081_at) / RFU ISYNA1 (11749810_s_at) / Fold change /veh ISYNA1 (11749810_s_at) / RFU ACY1 (11761880_at) / Fold change /veh ACY1 (11761880_at) / RFU 11764098_at / Fold change /veh 11764098_at / RFU SAMD14 (11745864_x_at) / Fold change /veh SAMD14 (11745864_x_at) / RFU NPB (11741838_a_at) / Fold change /veh NPB (11741838_a_at) / RFU TMPRSS6 (11731388_a_at) / Fold change /veh TMPRSS6 (11731388_a_at) / RFU KRTAP10-2 (11738614_at) / Fold change /veh KRTAP10-2 (11738614_at) / RFU ARHGAP8 /// PRR5-ARHGAP8 (11727945_x_at) / Fold change /veh ARHGAP8 /// PRR5-ARHGAP8 (11727945_x_at) / RFU KRTAP5-7 /// NADSYN1 (11734609_at) / Fold change /veh KRTAP5-7 /// NADSYN1 (11734609_at) / RFU RASL12 (11751679_a_at) / Fold change /veh RASL12 (11751679_a_at) / RFU CDKN2B (11736163_a_at) / Fold change /veh CDKN2B (11736163_a_at) / RFU PRF1 (11729649_at) / Fold change /veh PRF1 (11729649_at) / RFU, ZNF638 /// ZNF638-IT1 / Fold change vs veh, ZNF638 /// ZNF638-IT1 / RFU, PANK3 / Fold change vs veh, PANK3 / RFU, SH3YL1 / Fold change vs veh, SH3YL1 / RFU, ZEB2 / Fold change vs veh, ZEB2 / RFU, NRIP1 / Fold change vs veh, NRIP1 / RFU, PTTG1IP / Fold change vs veh, PTTG1IP / RFU, CAPN2 / Fold change vs veh, CAPN2 / RFU, MED14 / Fold change vs veh, MED14 / RFU, SNORA58 / Fold change vs veh, SNORA58 / RFU, C1orf63 / Fold change vs veh, C1orf63 / RFU, LRRFIP1 / Fold change vs veh, LRRFIP1 / RFU, NDUFAF7 / Fold change vs veh, NDUFAF7 / RFU, SLC12A2 / Fold change vs veh, SLC12A2 / RFU, IBTK / Fold change vs veh, IBTK / RFU, ESF1 / Fold change vs veh, ESF1 / Fold change vs veh, TMEM50B / RFU, TAOK1 / Fold change vs veh, TAOK1 / RFU, ACBD3 / Fold change vs veh, ACBD3 / RFU, TMA16 / Fold change vs veh, TMA16 / RFU, RWDD3 / Fold change vs veh, RWDD3 / RFU, BCAT1 / Fold change vs veh, BCAT1 / RFU, EDEM3 / Fold change vs veh, EDEM3 / RFU, TMEM33 / Fold change vs veh, TMEM33 / RFU, WDR75 / Fold change vs veh, WDR75 / RFU, AHCTF1 / Fold change vs veh, AHCTF1 / RFU, TFRC / Fold change vs veh, TFRC / RFU, ZDHHC17 / Fold change vs veh, ZDHHC17 / RFU, NOM1 / Fold change vs veh, NOM1 / RFU, ARL8B / Fold change vs veh, ARL8B / RFU, ZBTB11 / Fold change vs veh, ZBTB11 / RFU, TAMM41 / Fold change vs veh, TAMM41 / RFU, KIAA1704 /// LOC100996395 / Fold change vs veh, KIAA1704 /// LOC100996395 / RFU, ING1 / Fold change vs veh, ING1 / RFU, TRMT61B / Fold change vs veh, TRMT61B / RFU, FUBP3 / Fold change vs veh, FUBP3 / RFU, TP53 / Fold change vs veh, TP53 / RFU, TNKS2 / Fold change vs veh, TNKS2 / RFU, ZFP14 / Fold change vs veh, ZFP14 / RFU, ACTR2 / Fold change vs veh, ACTR2 / RFU, PPP3R1 / Fold change vs veh, PPP3R1 / RFU, PIK3R1 / Fold change vs veh, PIK3R1 / RFU, HNRNPA1 / Fold change vs veh, HNRNPA1 / RFU, RNF170 / Fold change vs veh, RNF170 / RFU, ZNF28 / Fold change vs veh, ZNF28 / RFU, RNGTT / Fold change vs veh, RNGTT / RFU, OGT / Fold change vs veh, OGT / RFU, BRD1 / Fold change vs veh, BRD1 / RFU, MARS / Fold change vs veh, MARS / RFU, ZNF655 / Fold change vs veh, ZNF655 / RFU, FAHD1 / Fold change vs veh, FAHD1 / RFU, BDP1 / Fold change vs veh, BDP1 / RFU, LRRCC1 / Fold change vs veh, LRRCC1 / RFU, ARID1A / Fold change vs veh, ARID1A / RFU, ZNF146 / Fold change vs veh, ZNF146 / RFU, ZNF330 / Fold change vs veh, ZNF330 / RFU, GPN3 / Fold change vs veh, GPN3 / RFU, C9orf123 / Fold change vs veh, C9orf123 / RFU, N4BP2L2 / Fold change vs veh, N4BP2L2 / RFU, ARFIP1 / Fold change vs veh, ARFIP1 / RFU, FAM179B / Fold change vs veh, FAM179B / RFU, BCL10 / Fold change vs veh, BCL10 / RFU, UHRF1BP1L / Fold change vs veh, UHRF1BP1L / RFU, BET1 / Fold change vs veh, BET1 / RFU, CNOT2 / Fold change vs veh, CNOT2 / RFU, ZNF268 / Fold change vs veh, ZNF268 / Fold change vs veh, ZNF507 / RFU, DGCR2 / Fold change vs veh, DGCR2 / RFU, WDSUB1 / Fold change vs veh, WDSUB1 / Fold change vs veh, HSP90B1 /// MIR3652 / RFU, ADSS / Fold change vs veh, ADSS / RFU, GK / Fold change vs veh, GK / RFU, ZNF148 / Fold change vs veh, ZNF148 / RFU, TAF9 / Fold change vs veh, TAF9 / RFU, SLC1A5 / Fold change vs veh, SLC1A5 / RFU, SLMO2 / Fold change vs veh, SLMO2 / RFU, ABCC4 / Fold change vs veh, ABCC4 / RFU, LOC101060439 /// RAP1B / Fold change vs veh, LOC101060439 /// RAP1B / RFU, RFX7 / Fold change vs veh, RFX7 / RFU, GTPBP10 / Fold change vs veh, GTPBP10 / RFU, CNEP1R1 / Fold change vs veh, CNEP1R1 / RFU, BIVM-ERCC5 /// ERCC5 / Fold change vs veh, BIVM-ERCC5 /// ERCC5 / RFU, ILF3 / Fold change vs veh, ILF3 / RFU 11762660_at / Fold change /veh 11762660_at / RFU VCAN (11757783_s_at) / Fold change /veh VCAN (11757783_s_at) / RFU DDX43 (11728927_at) / Fold change /veh DDX43 (11728927_at) / RFU KRT8 (11758188_x_at) / Fold change /veh KRT8 (11758188_x_at) / RFU NKD1 (11759106_at) / Fold change /veh NKD1 (11759106_at) / RFU SRD5A1 (11742802_a_at) / Fold change /veh SRD5A1 (11742802_a_at) / RFU TPSAB1 /// TPSB2 (11721975_s_at) / Fold change /veh TPSAB1 /// TPSB2 (11721975_s_at) / RFU GSTM3 (11746129_a_at) / Fold change /veh GSTM3 (11746129_a_at) / RFU IL23R (11737362_x_at) / Fold change /veh IL23R (11737362_x_at) / RFU TMEM51 (11727254_a_at) / Fold change /veh TMEM51 (11727254_a_at) / RFU PIWIL2 (11732686_x_at) / Fold change /veh PIWIL2 (11732686_x_at) / RFU ORM1 (11744905_x_at) / Fold change /veh ORM1 (11744905_x_at) / RFU CCDC152 (11743942_at) / Fold change /veh CCDC152 (11743942_at) / RFU ECM1 (11717891_a_at) / Fold change /veh ECM1 (11717891_a_at) / RFU IL23R (11748794_a_at) / Fold change /veh IL23R (11748794_a_at) / RFU TNFAIP8L3 (11732012_x_at) / Fold change /veh TNFAIP8L3 (11732012_x_at) / RFU MBOAT4 (11741988_at) / Fold change /veh MBOAT4 (11741988_at) / RFU 11764193_at / Fold change /veh 11764193_at / RFU TMEM53 (11763286_at) / Fold change /veh TMEM53 (11763286_at) / RFU MAGEB2 (11727129_at) / Fold change /veh MAGEB2 (11727129_at) / RFU TMEM200A (11744735_a_at) / Fold change /veh TMEM200A (11744735_a_at) / RFU CCDC152 (11751479_a_at) / Fold change /veh CCDC152 (11751479_a_at) / RFU FAM211A (11726209_a_at) / Fold change /veh FAM211A (11726209_a_at) / RFU RGS16 (11746705_a_at) / Fold change /veh RGS16 (11746705_a_at) / RFU VCAN (11755009_s_at) / Fold change /veh VCAN (11755009_s_at) / RFU RHOB (11743442_s_at) / Fold change /veh RHOB (11743442_s_at) / RFU RGS16 (11720943_a_at) / Fold change /veh RGS16 (11720943_a_at) / RFU RGS16 (11720944_at) / Fold change /veh RGS16 (11720944_at) / RFU, VPS4B / Fold change vs veh, VPS4B / RFU, CREB1 / Fold change vs veh, CREB1 / RFU, DNAJC13 / Fold change vs veh, DNAJC13 / RFU, GNAQ / Fold change vs veh, GNAQ / RFU, CDK5R1 / Fold change vs veh, CDK5R1 / RFU, ZRANB3 / Fold change vs veh, ZRANB3 / RFU, CUL4A / Fold change vs veh, CUL4A / RFU, CCNY / Fold change vs veh, CCNY / RFU, UFL1 / Fold change vs veh, UFL1 / RFU, COG3 / Fold change vs veh, COG3 / RFU, DIAPH2 / Fold change vs veh, DIAPH2 / RFU, SKA2 / Fold change vs veh, SKA2 / RFU, AFF3 / Fold change vs veh, AFF3 / RFU, LMF1 / Fold change vs veh, LMF1 / RFU, IPO11 / Fold change vs veh, IPO11 / RFU, DFFB / Fold change vs veh, DFFB / RFU, FOXP1 / Fold change vs veh, FOXP1 / RFU, CARD8 / Fold change vs veh, CARD8 / RFU, STRN3 / Fold change vs veh, STRN3 / RFU, ADK / Fold change vs veh, ADK / RFU, RASSF2 / Fold change vs veh, RASSF2 / RFU, WIPF1 / Fold change vs veh, WIPF1 / RFU, LARP1B / Fold change vs veh, LARP1B / RFU, RASA1 / Fold change vs veh, RASA1 / RFU, RB1 / Fold change vs veh, RB1 / RFU, PPFIA1 / Fold change vs veh, PPFIA1 / RFU, MAT2A / Fold change vs veh, MAT2A / RFU, CCT5 / Fold change vs veh, CCT5 / RFU, WDR92 / Fold change vs veh, WDR92 / RFU, CUX1 / Fold change vs veh, CUX1 / RFU, TTC7A / Fold change vs veh, TTC7A / RFU, TMEM135 / Fold change vs veh, TMEM135 / RFU, DEPTOR / Fold change vs veh, DEPTOR / RFU, CPM / Fold change vs veh, CPM / RFU, DNAJB6 / Fold change vs veh, DNAJB6 / RFU, CACNA2D3 / Fold change vs veh, CACNA2D3 / RFU, DTX4 / Fold change vs veh, DTX4 / RFU, TFCP2 / Fold change vs veh, TFCP2 / RFU, GMCL1 /// GMCL1P1 / Fold change vs veh, GMCL1 /// GMCL1P1 / RFU, AEBP2 / Fold change vs veh, AEBP2 / RFU, SNHG1 /// SNORD22 /// SNORD25 /// SNORD26 /// SNORD27 /// SNORD28 /// SNORD29 /// SNORD31 / Fold change vs veh, SNHG1 /// SNORD22 /// SNORD25 /// SNORD26 /// SNORD27 /// SNORD28 /// SNORD29 /// SNORD31 / Fold change (Aza/veh), C12orf56 (ProbeSet 11735607_a_at) / Fold change (ACY-1035/veh), C12orf56 (ProbeSet 11735607_a_at) / Fold change (Aza/veh), FGFR1OP (ProbeSet 11751329_s_at) / Fold change (ACY-1035/veh), FGFR1OP (ProbeSet 11751329_s_at) / Fold change (Aza/veh), VPS36 (ProbeSet 11739960_a_at) / Fold change (ACY-1035/veh), VPS36 (ProbeSet 11739960_a_at) / RFU SYPL1 (11715823_x_at) / Fold change /veh SYPL1 (11715823_x_at) / RFU IGFBP7 (11715501_s_at) / Fold change /veh IGFBP7 (11715501_s_at) / RFU REEP3 (11722064_at) / Fold change /veh REEP3 (11722064_at) / RFU IGLL1 (11728026_x_at) / Fold change /veh IGLL1 (11728026_x_at): dose or concentration left out as unconfirmed
Details: MV-4-11 cells, 48 hours

Nc1ccc(-c2cccs2)cc1NC(=O)c1ccc2c(c1)cc(C1CC1)n2CCN1CCOCC1 [ACY-1035]
RFU CASKIN2 (11723855_a_at): 29.44 RFU
